Data taken from patent US5100890A, “Arylmethylazoles and their salts, agents which contain these compounds, and their use” (priority 1985, dated 1992).
Where two headings read alike, the source gives them in different places.

How the values were obtained:
[1] = tested on: stereotypes; assay: Test of the promotion of stereotypes in rats (Method 3); format: in vivo, rat (Wistar); conditions: for ED50: read-out: ED50, dose at which half the maximum possible number of points is reached (Method 3, rat)
Procedure: 3. Test of the promotion of stereotypes in rats
The tests were carried out on 130-140 g male Wistar rats. The stereotypes were assessed at 15 minute intervals during the first two hours after administration of the substance, and then at half-hourly intervals up to the 6th hour. The scale below was used. […]
The number of points were calculated as a total number per 6 hours, divided by the number of observations.
The ED50 dose is the dose at which half the maximum possible number of points (5 points multiplied by the number of observations) is reached.

[2] = tested on: tetrabenazine ptosis; assay: Effect on tetrabenazine ptosis (TBZ), rat (Method 1); format: in vivo, rat (Wistar); conditions: po, 0.5 h
Procedure: (§1) The appropriate amount of a homogenate of the particular substance in aqueous carboxymethylcellulose is fed to 6 male animals by means of a gavage one hour before treatment with tetrabenazine (40 mg/kg), intraperitoneally).
(§2) 1. Test of the effect on tetrabenazine ptosis (TBZ)
(§3) Test on mice (NMRI), male, weight 19-21 g, or on rats (Wistar), male, about 120 g body weight. Preparation administered orally, homogenized in 1% strength tylose, 1 hour before tetrabenzine, 40 mg/kg, administered subcutaneously (N=6/dose). During the test, 6 animals are present together in one container. To test for upper lid ptosis, the animals are placed individually on the table top. The extent of the ptosis (0-4 points) is assessed and is expressed as a percentage of the maximum score achievable. Evaluation is carried out 30 minutes after administration of tetrabenazine.

[3] = tested on: yohimbine toxicity; assay: Potentiation of the yohimbine toxicity in mice (Method 2); format: in vivo, mouse (NMRI); conditions: 1 hour before yohimbine hydrochloride 20 mg/kg s.c.; for LD50, potentiation of yohimbine toxicity (Method 2, mouse): oral, deaths after 18 hours
Procedure: The compounds I and their acid addition salts potentiate the toxicity of yohimbine in mice. Antidepressants of type I administered orally in a dose of 0.5 to 100 mg/kg increased the death rate for an otherwise non-fatal dose of yohimbine hydrochloride (20 mg/kg, administered subcutaneously).
2. Potentiation of the yohimbine toxicity in mice
The toxicity of yohimbine, a blocker of presynaptic alpha-receptors, is potentiated by antidepressants (literature: R. M. Quinton, Brit. J. Pharmac. 21, 55-56 (1963). Male mice, NMRI strain, 20-22 g, were arranged in test groups of n=10. The test preparation was suspended in 1% strength aqueous Tylose® slime and administered orally in a volume of 10 ml/kg. Control received only the vehicle.
After a pretreatment time of 1 hour, all animals received a dose of yohimbine hydrochloride, which dose, when administered alone, is non-toxic (20 mg/kg, administered subcutaneously). The dead animals were determined 18 hours after this treatment. (Calculation of the LD50 by probit analysis).

[4] = tested on: tetrabenazine ptosis; assay: Effect on tetrabenazine ptosis (TBZ), mouse (Method 1); format: in vivo, mouse (NMRI); conditions: po, 0.5 h
Procedure: as §1, §2, §3

[5] = Rattus norvegicus, read-out: ED50, 50% reduction in the degree of ptosis (Method 1, rat)
[6] = Mus musculus, read-out: ED50, 50% reduction in the degree of ptosis (Method 1, mouse)
[7] = read-out: ED50, 50% reduction in the degree of ptosis (Method 1), mouse, p.o., 1 hour before tetrabenazine 40 mg/kg

Question: Which “stereotypes (Method 3, rat), in words” value ([1]; rat, up to 300 mg/kg p.o.) does the source give for `OC1(C(c2cccc(Cl)c2)n2ccnc2)C2CC3CC(C2)CC1C3` (racemic) [Example 25, (3-chlorophenyl)-(2-hydroxy-2-adamantyl)-(1-imidazolyl)-methane] here?
Answer: no stereotypes

Question: What about the ED50 [2, 5] of the same molecule?
Answer: 10 mg/kg

Question: And the “LD50, potentiation of yohimbine toxicity (Method 2, mouse)” value (from here on “LD50, potentiation of yohimbine toxicity”) [3]?
Answer: 4.4 mg/kg

Question: And the ED50 [4, 6]?
Answer: 0.79 mg/kg

Question: `O=C(O)C(O)C(O)C(=O)O.OC1(C(c2cccc(Cl)c2)n2ccnc2)C2CC3CC(C2)CC1C3` (single isomer, unassigned; (+)) [Example 168a, (+)-(3-chlorophenyl)-(2-hydroxy-2-adamantyl)-(1-imidazolyl)-methane hydrogen tartrate] was tested. Which ED50 ([1]; Rattus norvegicus, po, 6 h) did it give?
Answer: 30 mg/kg

Question: What about the ED50 [2, 5] of the same molecule?
Answer: 5.5 mg/kg

Question: What about the “LD50, potentiation of yohimbine toxicity” value [3] of the same molecule?
Answer: 4.6 mg/kg

Question: And the ED50 [4, 6]?
Answer: 2.5 mg/kg

Question: Which ED50 ([1]; po, rat, p.o., 6 hours) does the source give for `CC(C)(C)C(O)C(c1ccc(-c2ccccc2)cc1)n1ccnc1` (centres unmarked) [Example 4, 1-(4-Biphenyl)-3,3-dimethyl-1-(1-imidazolyl)-butan-2-ol] here?
Answer: > 30 mg/kg

Question: And the “LD50, potentiation of yohimbine toxicity” value [3]?
Answer: 5.3 mg/kg

Question: `OC(C(c1cccc(Cl)c1)n1ccnc1)C12CC3CC(CC(C3)C1)C2` (centres unmarked) [Example 105, 1-(1-Adamantyl)-2-(3-chlorophenyl)-2-(1-imidazolyl)-ethanol] was tested. Which ED50 ([1]; po, rat, p.o., 6 hours) did it give?
Answer: > 30 mg/kg

Question: What about the “LD50, potentiation of yohimbine toxicity” value [3] of the same molecule?
Answer: 8.5 mg/kg

Question: How did the ED50 ([1]; po, rat, p.o., 6 hours) turn out when `Cc1cccc(C(n2ccnc2)C2(O)C3CC4CC(C3)CC2C4)c1` (centres unmarked) [Example 106, (2-Hydroxy-2-adamantyl)-1-imidazolyl-(3-tolyl)-methane] was run?
Answer: > 30 mg/kg

Question: What about the “LD50, potentiation of yohimbine toxicity” value [3] of the same molecule?
Answer: 7 mg/kg

Question: And the ED50 [4, 7]?
Answer: 1.5 mg/kg

Question: With `COc1ccc(C(n2ccnc2)C2(O)C3CC4CC(C3)CC2C4)cc1OC` (centres unmarked) [Example 120] as the molecule, how does the “ED50 (Method 2, mouse)” value ([3]; p.o., given as ED50, 1080 min) read?
Answer: 3 mg/kg

Question: What about the ED50 [4, 6] of the same molecule?
Answer: 3 mg/kg

Question: How did the “LD50, potentiation of yohimbine toxicity” value [3] turn out when `OC1(C(c2ccc3ccccc3c2)n2ccnc2)C2CC3CC(C2)CC1C3` (centres unmarked) [Example 126] was run?
Answer: 3.2 mg/kg

Question: And the ED50 [4, 6]?
Answer: 3 mg/kg

Question: How did the ED50 ([1]; Rattus norvegicus, 6 h) turn out when `CN1Cc2c(N)cccc2C(c2ccccc2)C1` (centres unmarked) [Nomifensin, reference compound] was run?
Answer: 11.9 mg/kg

Question: What about the ED50 ([2]; read-out: ED50, 50% reduction in the degree of ptosis (Method 1), rat, p.o., 1 hour before tetrabenazine 40 mg/kg) of the same molecule?
Answer: 2.7 mg/kg

Question: What about the “LD50, potentiation of yohimbine toxicity” value [3] of the same molecule?
Answer: 8.6 mg/kg

Question: What about the ED50 [4, 7] of the same molecule?
Answer: 0.72 mg/kg
